Measured values as given in the supplement of paper PMC11451515.

Test system: NOMO1
Test: cell viability relative to DMSO control; higher = less cytotoxic
Details: 48 h
Outline: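 Cells were incubated for 48 h at 37°C before CellTiter-Glo One luminescence was read. The cells were NOMO1 or SEM (500 cells/well) or P12-Ichikawa (1000 cells/well) leukemia cells, adapted for at least four passages in each medium and seeded in 1536-well plates (5 μl). Dosing used library compounds in DMSO applied by pin over 11 threefold points, 47 μM to 0.79 nM. Viability is the per-plate percentage of DMSO wells, with cell-free wells as background.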

[1] = HPLM + 10% dialyzed FBS, 0.000781 µM
[2] = HPLM + 10% dialyzed FBS, 0.00234 µM
[3] = HPLM + 10% dialyzed FBS, 0.00702 µM
[4] = HPLM + 10% dialyzed FBS, 0.0211 µM
[5] = HPLM + 10% dialyzed FBS, 0.0632 µM
[6] = HPLM + 10% dialyzed FBS, 0.19 µM
[7] = HPLM + 10% dialyzed FBS, 0.569 µM
[8] = HPLM + 10% dialyzed FBS, 1.71 µM
[9] = HPLM + 10% dialyzed FBS, 5.12 µM
[10] = HPLM + 10% dialyzed FBS, 15.4 µM
[11] = HPLM + 10% dialyzed FBS, 46.1 µM
[12] = RPMI 5 mM glucose + 10% FBS, 0.000781 µM
[13] = RPMI 5 mM glucose + 10% FBS, 0.00234 µM
[14] = RPMI 5 mM glucose + 10% FBS, 0.00702 µM
[15] = RPMI 5 mM glucose + 10% FBS, 0.0211 µM
[16] = RPMI 5 mM glucose + 10% FBS, 0.0632 µM
[17] = RPMI 5 mM glucose + 10% FBS, 0.19 µM
[18] = RPMI 5 mM glucose + 10% FBS, 0.569 µM
[19] = RPMI 5 mM glucose + 10% FBS, 1.71 µM
[20] = RPMI 5 mM glucose + 10% FBS, 5.12 µM
[21] = RPMI 5 mM glucose + 10% FBS, 15.4 µM
[22] = RPMI 5 mM glucose + 10% FBS, 46.1 µM
[23] = RPMI 5 mM glucose + 10% dialyzed FBS, 0.000781 µM
[24] = RPMI 5 mM glucose + 10% dialyzed FBS, 0.00234 µM
[25] = RPMI 5 mM glucose + 10% dialyzed FBS, 0.00702 µM
[26] = RPMI 5 mM glucose + 10% dialyzed FBS, 0.0211 µM
[27] = RPMI 5 mM glucose + 10% dialyzed FBS, 0.0632 µM
[28] = RPMI 5 mM glucose + 10% dialyzed FBS, 0.19 µM
[29] = RPMI 5 mM glucose + 10% dialyzed FBS, 0.569 µM
[30] = RPMI 5 mM glucose + 10% dialyzed FBS, 1.71 µM
[31] = RPMI 5 mM glucose + 10% dialyzed FBS, 5.12 µM
[32] = RPMI 5 mM glucose + 10% dialyzed FBS, 15.4 µM
[33] = RPMI 5 mM glucose + 10% dialyzed FBS, 46.1 µM

Row | SMILES | cell viability [1] [%] | cell viability [2] [%] | cell viability [3] [%] | cell viability [4] [%] | cell viability [5] [%] | cell viability [6] [%] | cell viability [7] [%] | cell viability [8] [%] | cell viability [9] [%] | cell viability [10] [%] | cell viability [11] [%] | cell viability [12] [%] | cell viability [13] [%] | cell viability [14] [%] | cell viability [15] [%] | cell viability [16] [%] | cell viability [17] [%] | cell viability [18] [%] | cell viability [19] [%] | cell viability [20] [%] | cell viability [21] [%] | cell viability [22] [%] | cell viability [23] [%] | cell viability [24] [%] | cell viability [25] [%] | cell viability [26] [%] | cell viability [27] [%] | cell viability [28] [%] | cell viability [29] [%] | cell viability [30] [%] | cell viability [31] [%] | cell viability [32] [%] | cell viability [33] [%]
1 | O=C(Nc1ccccc1)Nc1ccc(-c2ccc(C(=O)[C@@H]3CCC[C@H]3C(=O)O)cc2)cc1 | 109 | 122 | 103 | 94.1 | 119 | 98.3 | 99 | 77 | 67.2 | 66.7 | 56.5 | 109 | 111 | 98.6 | 101 | 110 | 97.7 | 100 | 95.9 | 90.6 | 83.5 | 69.5 | 105 | 121 | 114 | 105 | 122 | 97.9 | 88.8 | 96 | 81.8 | 73.7 | 59.7
2 | NC(=O)N1CCC(CC(=O)N2CCC([C@H]3c4ncc(Br)cc4CCc4cc(Cl)cc(Br)c43)CC2)CC1 | 113 | 109 | 126 | 118 | 117 | 110 | 114 | 122 | 90 | 90 | 53.4 | 107 | 112 | 109 | 98.5 | 104 | 103 | 99.2 | 101 | 86.2 | 80.2 | 54.1 | 109 | 113 | 123 | 112 | 118 | 112 | 94 | 104 | 95.7 | 87.6 | 69.4
3 | CC(=O)N(O)CCCCCNC(=O)CCC(=O)N(O)CCCCCNC(=O)CCC(=O)N(O)CCCCCN.C[S+](=O)([O-])O | 90.9 | 83.7 | 81.8 | 32.6 | 34 | 34.6 | 28.3 | 27.2 | 27.7 | 23.6 | 21.5 | 88.8 | 97.4 | 115 | 45.7 | 28.1 | 17.6 | 24.9 | 20.9 | 16.4 | 10.6 | 12.5 | 86 | 105 | 113 | 106 | 79.1 | 26.3 | 26.4 | 21.4 | 23.8 | 18.2 | 17.4
4 | CNC(=O)c1nn(C)c2c1C(C)(C)Cc1cnc(Nc3ccc(N4CCN(C)CC4)cc3)nc1-2 | 125 | 108 | 104 | 104 | 99.7 | 113 | 103 | 65.8 | 55.6 | 47.8 | 8.74 | 111 | 114 | 103 | 107 | 115 | 111 | 100 | 86.6 | 78.8 | 48.3 | 13.2 | 113 | 102 | 107 | 106 | 118 | 108 | 103 | 75.6 | 66 | 46.8 | 8.73
5 | O=c1oc2cc(O)ccc2s1 | 109 | 128 | 120 | 107 | 114 | 110 | 110 | 95.8 | 101 | 110 | 90.3 | 109 | 117 | 130 | 108 | 105 | 116 | 108 | 108 | 115 | 102 | 98.3 | 98.1 | 116 | 117 | 119 | 103 | 104 | 112 | 105 | 101 | 107 | 109
6 | COc1cc2cc(c1Cl)N(C)C(=O)C[C@H](OC(=O)C(C)C)[C@]1(C)O[C@@H]1[C@H](C)[C@@H]1C[C@@](O)(NC(=O)O1)[C@H](OC)/C=C/C=C(\C)C2 | 55.5 | 53.1 | 53.3 | 44.3 | 49 | 41.8 | 42.1 | 41.8 | 34.9 | 35.7 | 13 | 32.8 | 29.5 | 33.7 | 30.8 | 27.3 | 23.5 | 24 | 19 | 22.4 | 26.4 | 9.73 | 37.2 | 40.4 | 36.2 | 32.1 | 22.9 | 22.2 | 25.4 | 22.4 | 25.9 | 27.8 | 11.8
7 | CC(C)C[C@H](CC(=O)O)C(=O)N[C@@H](Cc1c[nH]c2ccccc12)C(=O)N[C@@H](C)c1ccccc1 | 122 | 114 | 124 | 112 | 109 | 123 | 104 | 116 | 95.9 | 60.9 | 37.3 | 91.3 | 93.9 | 105 | 103 | 109 | 109 | 107 | 107 | 105 | 74.8 | 29.5 | 104 | 115 | 105 | 105 | 114 | 114 | 116 | 127 | 113 | 113 | 56.6
